Assay [1] concerns phospho-ERK in A549 (G12S) cells. The assay is described as follows: Inhibition of KRas-mediated phosphorylation of ERK (in-cell western). The format is cell-based. As to conditions: Homo sapiens, 3 hours compound, phospho-ERK normalized to GAPDH. In outline: (§1)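 After a 3-hour incubation with diluted compound in 0.5% DMSO, cells are fixed, permeabilized and stained overnight at 4° C for phosphorylated ERK and GAPDH.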

For assay [2], the system named is phospho-ERK in AsPC-1 (G12D) cells. The assay is described as above. The format is cell-based. As to conditions: 3 hours compound, phospho-ERK normalized to GAPDH. In outline: as §1
Assay [3] relates to phospho-ERK in HCT116 (G13D) cells. Described as above. The class given is cell-based. As to conditions: Homo sapiens, HCT-116, 3 hours compound, phospho-ERK normalized to GAPDH. In outline:
as §1

Assay [4] deals with phospho-ERK in MKN1 (WTdep) cells. The assay is described as above. The format is cell-based. As to conditions: Homo sapiens, MKN-1, 3 hours compound, phospho-ERK normalized to GAPDH. In outline:
as §1

The test system of assay [5] is phospho-ERK in NCI-H358 (G12C) cells. The description is as above. The class given is cell-based. As to conditions: Homo sapiens, 3 hours compound, phospho-ERK normalized to GAPDH. In outline:
as §1

The test system of assay [6] is phospho-ERK in NCI-H460 (Q61H) cells. The description is as above. The class given is cell-based. As to conditions: 3 hours compound, phospho-ERK normalized to GAPDH. In outline:
as §1

Assay [7] deals with phospho-ERK in NCI-H727 (G12V) cells. Described as above. The class given is cell-based. As to conditions: 3 hours compound, phospho-ERK normalized to GAPDH. In outline:
as §1

Assay [8] concerns phospho-ERK in PSN-1 (G12R) cells. The description is as above. The class given is cell-based. As to conditions: Homo sapiens, PSN1, 3 hours compound, phospho-ERK normalized to GAPDH. In outline:
as §1

In another assay the target is KRas G12D (Homo sapiens, UniProt P01116, G12D). The assay is described as follows: biochemical.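 Further: TR-FRET displacement binding assay on KRas, read after a one-hour incubation at room temperature, IC50 fitted from percent-of-control values.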
The target in another assay is KRas G12V (Homo sapiens, UniProt P01116, G12V). The assay is described as follows: biochemical.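 Further: KRas binding measured by TR-FRET displacement at room temperature, IC50 fitted from percent of control values.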
For the next assay, the target named is KRas G12R (Homo sapiens, UniProt P01116, G12R). The assay is described as follows: biochemical.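 Further: TR-FRET displacement assay of compound binding to KRas, read after one hour at room temperature, potency from a four-parameter fit of percent-of-control values.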
The next assay has as its target T1, KRas G13D (Homo sapiens, UniProt P01116, G13D).
T1 construct: Biotinylated KRas (corresponding to amino acids 1-169, produced at Accelegan Inc.); biotin (biotinylated); purchased Accelegan Inc
The assay is described as follows: KRas binding assay (TR-FRET displacement).

In a further assay the target is T2, KRas Q61H (Homo sapiens, UniProt P01116, Q61H).
T2 construct: Biotinylated KRas (corresponding to amino acids 1-169, produced at Accelegan Inc.); biotin (biotinylated); purchased Accelegan Inc
The assay is described as follows: KRas binding assay (TR-FRET displacement).

For the next assay, the target named is KRas G12A (Homo sapiens, UniProt P01116, G12A). The assay is described as follows: biochemical.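 Further: binding to KRas measured by TR-FRET displacement after one hour at room temperature, IC50 from a four-parameter fit of percent-of-control values.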
The target of the next assay is KRas G12S (Homo sapiens, UniProt P01116, G12S). The assay is described as follows: biochemical.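 Further: TR-FRET displacement binding to KRas, read after one hour incubation at room temperature, IC50 from four-parameter fit of percent of control.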
For another assay, the target named is KRas G12C (Homo sapiens, UniProt P01116, G12C). The assay is described as follows: biochemical.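 Further: binding to KRas assessed by TR-FRET displacement after one hour incubation at room temperature, potency fitted from percent-of-control values.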
In another assay the target is KRas WT (Homo sapiens, UniProt P01116). The assay is described as follows: biochemical.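 Further: binding to KRas read as TR-FRET displacement after a one-hour room-temperature incubation, IC50 derived from percent-of-control values.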

A value given as a limit tells only on which side of the number the result lay.

KRas G12V, sequence (P01116 1-169 isoform P01116-2 G12V): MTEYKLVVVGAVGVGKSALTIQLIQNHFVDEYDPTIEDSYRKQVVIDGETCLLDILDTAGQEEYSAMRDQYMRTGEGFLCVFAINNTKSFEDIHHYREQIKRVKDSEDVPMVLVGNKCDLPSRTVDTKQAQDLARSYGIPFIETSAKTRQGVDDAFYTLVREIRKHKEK
KRas G12R, sequence (P01116 1-169 isoform P01116-2 G12R): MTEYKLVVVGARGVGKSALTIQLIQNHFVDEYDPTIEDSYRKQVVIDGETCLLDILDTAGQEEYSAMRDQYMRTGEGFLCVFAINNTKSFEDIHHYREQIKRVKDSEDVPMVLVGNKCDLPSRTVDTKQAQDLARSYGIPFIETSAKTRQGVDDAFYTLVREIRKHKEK
KRas G12D, sequence (P01116 1-169 isoform P01116-2 G12D): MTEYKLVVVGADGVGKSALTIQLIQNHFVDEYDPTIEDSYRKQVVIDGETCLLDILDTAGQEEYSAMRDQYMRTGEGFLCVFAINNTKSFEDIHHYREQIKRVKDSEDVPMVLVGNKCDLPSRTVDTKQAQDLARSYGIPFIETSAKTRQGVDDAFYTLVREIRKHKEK
KRas G12A, sequence (P01116 1-169 isoform P01116-2 G12A): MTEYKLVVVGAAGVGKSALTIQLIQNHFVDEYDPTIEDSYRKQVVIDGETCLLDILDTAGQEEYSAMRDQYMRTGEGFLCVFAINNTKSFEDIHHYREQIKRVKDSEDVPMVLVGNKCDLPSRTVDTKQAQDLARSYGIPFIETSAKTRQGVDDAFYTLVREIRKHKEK
KRas G12C, sequence (P01116 1-169 isoform P01116-2 G12C): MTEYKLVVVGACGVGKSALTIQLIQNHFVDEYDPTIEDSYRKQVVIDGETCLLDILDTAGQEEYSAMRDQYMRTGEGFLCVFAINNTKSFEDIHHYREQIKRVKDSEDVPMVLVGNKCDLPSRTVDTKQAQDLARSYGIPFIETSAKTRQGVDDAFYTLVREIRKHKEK
KRas G12S, sequence (P01116 1-169 isoform P01116-2 G12S): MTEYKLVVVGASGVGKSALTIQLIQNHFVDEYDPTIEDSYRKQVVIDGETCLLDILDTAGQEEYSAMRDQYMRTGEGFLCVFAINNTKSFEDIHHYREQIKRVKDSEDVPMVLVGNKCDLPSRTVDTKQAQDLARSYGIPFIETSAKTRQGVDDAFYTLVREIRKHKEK
KRas WT, sequence (P01116 1-169 isoform P01116-2): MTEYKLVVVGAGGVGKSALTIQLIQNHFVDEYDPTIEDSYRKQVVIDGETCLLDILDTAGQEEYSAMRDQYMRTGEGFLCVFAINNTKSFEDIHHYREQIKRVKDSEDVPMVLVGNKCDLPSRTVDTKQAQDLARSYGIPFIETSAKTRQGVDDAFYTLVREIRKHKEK
T1 sequence (P01116 1-169 isoform P01116-2 G13D): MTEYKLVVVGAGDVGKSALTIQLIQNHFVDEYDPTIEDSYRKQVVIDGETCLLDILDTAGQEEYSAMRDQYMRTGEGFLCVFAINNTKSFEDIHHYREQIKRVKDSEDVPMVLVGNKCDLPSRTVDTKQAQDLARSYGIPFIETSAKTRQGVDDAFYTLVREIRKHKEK
T2 sequence (P01116 1-169 isoform P01116-2 Q61H): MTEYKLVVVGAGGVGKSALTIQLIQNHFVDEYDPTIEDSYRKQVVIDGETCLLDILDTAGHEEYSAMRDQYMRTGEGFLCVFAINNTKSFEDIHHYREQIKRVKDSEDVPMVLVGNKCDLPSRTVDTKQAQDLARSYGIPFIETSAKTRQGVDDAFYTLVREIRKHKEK

For `CCc1c(F)ccc2cc(O)cc(-c3ncc4c(NCc5c[nH]c6ncccc56)nc(OC[C@@]56CCCN5C[C@H](F)C6)nc4c3F)c12` [62.], the IC50 in [1] came out at 87 nM; in assay [2] (Homo sapiens, ASPC1, 3 h), 591 nM; in assay [3], 410 nM; in assay [4], 7 nM; in assay [5], 24 nM; in assay [6] (Homo sapiens, NCI-H460, 3 h), 154 nM. In addition, the IC50 in [7] (Homo sapiens, NCI-H727, 3 h) was 178 nM; in [8], not below 10000 nM.
As to `C#Cc1c(F)ccc2cccc(-c3ncc4c(N5CCCC6(CNC(=O)C6)C5)nc(OC[C@@]56CCCN5C[C@H](F)C6)nc4c3F)c12` (stereo partly drawn) [Example 36, 7-(7-(8-ethynyl-7-fluoronaphthalen-1-yl)-8-fluoro-2-(((2R,7aS)-2-fluorohexahydro-1H-pyrrolizin-7a-yl)methoxy)pyrido[4,3-d]pyrimidin-4-yl)-2,7-diazaspiro[4.5]decan-3-one], the IC50 was determined as 2150 nM in [1]; 1540 nM in assay [2] (Homo sapiens, ASPC1, 3 h); 1610 nM in [3]; 1180 nM in assay [4]; 1130 nM in assay [5]; 557 nM in assay [6] (Homo sapiens, NCI-H460, 3 h). The IC50 is 3390 nM in assay [7] (Homo sapiens, NCI-H727, 3 h); not below 10000 nM in [8]; 9 nM against KRas G12D; 20 nM against KRas G12V; 24 nM against KRas G12R.
With `CCc1c(F)ccc2cc(O)cc(-c3ncc4c(N5CCCC6(CNC(=O)C6)C5)nc(OC[C@@]56CCCN5C[C@H](F)C6)nc4c3F)c12` (stereo partly shown) [Example 38], the IC50 came out at 3270 nM in assay [1]; 966 nM in assay [2] (Homo sapiens, ASPC1, 3 h); 814 nM in assay [3]; 143 nM in assay [4]; 324 nM in assay [5]; 573 nM in assay [6] (Homo sapiens, NCI-H460, 3 h). Besides, the IC50 in assay [7] (Homo sapiens, NCI-H727, 3 h) is 1190 nM; in assay [8] it was 7620 nM; on KRas G12D it was not above 2 nM; on KRas G12V it was not above 2 nM; against KRas G12R, not above 2 nM.
For `CCc1c(F)ccc2cc(O)cc(-c3ncc4c(N5C[C@H](O)C[C@@H](O)C5)nc(OC[C@@]56CCCN5C[C@H](F)C6)nc4c3F)c12` [Example 59], the IC50 stood at 3560 nM in assay [1]; 577 nM in assay [2]; 1270 nM in assay [3]; 107 nM in assay [4]; 176 nM in assay [5]; 296 nM in assay [6]. Moreover, the half-maximal inhibitory concentration (IC50) in assay [7] was 769 nM; in [8] it was not below 10000 nM; on KRas G12D, not above 2 nM; on KRas G12V, not above 2 nM; against KRas G12R, not above 2 nM.
For `CCc1c(F)ccc2cc(O)cc(-c3ncc4c(NCC5CNC(=O)C5)nc(OC[C@@]56CCCN5C[C@H](F)C6)nc4c3F)c12` (stereo partly shown) [Example 60], the IC50 in assay [1] was found to be 5530 nM; in assay [2] (Homo sapiens, ASPC1, 3 h) it was 3890 nM; in assay [3] it was 3600 nM; in assay [4], 230 nM; in assay [5], 389 nM; in assay [6] (Homo sapiens, NCI-H460, 3 h), 1030 nM. Moreover, the IC50 in assay [7] (Homo sapiens, NCI-H727, 3 h) was 1260 nM; in assay [8], not below 10000 nM; at KRas G12D it was not above 2 nM; at KRas G12V, not above 2 nM; at KRas G12R, not above 2 nM.
With `CCc1c(F)ccc2cc(O)cc(-c3ncc4c(N5CCC6(CC5)CC(=O)N6)nc(OC[C@@]56CCCN5C[C@H](F)C6)nc4c3F)c12` [Example 73], the IC50 stood at 191 nM in [1]; 3490 nM in assay [2] (Homo sapiens, ASPC1, 3 h); 128 nM in [3]; 23 nM in assay [4]; 98 nM in assay [5]; 176 nM in assay [6] (Homo sapiens, NCI-H460, 3 h). Besides, the IC50 in assay [7] (Homo sapiens, NCI-H727, 3 h) was 756 nM; in assay [8] it was not below 10000 nM; at KRas G12D, 5 nM; on KRas G12V, not above 2 nM; against KRas G12R, not above 2 nM.
Take `CCc1c(F)ccc2cc(O)cc(-c3ncc4c(N5CC(n6ccnc6)C5)nc(OC[C@@]56CCCN5C[C@H](F)C6)nc4c3F)c12` [Example 134, 4-(4-(3-(1H-imidazol-1-yl)azetidin-1-yl)-8-fluoro-2-(((2R,7aS)-2-fluorohexahydro-1H-pyrrolizin-7a-yl)methoxy)pyrido[4,3-d]pyrimidin-7-yl)-5-ethyl-6-fluoronaphthalen-2-ol]: the IC50 in [1] is 1490 nM; in [2] (Homo sapiens, ASPC1, 3 h) it was not below 10000 nM; in [3], not below 10000 nM; in assay [4] it was 178 nM; in assay [5], 48 nM; in assay [6] (Homo sapiens, NCI-H460, 3 h) it was 666 nM. Also, the IC50 in [7] (Homo sapiens, NCI-H727, 3 h) is not below 10000 nM; in [8], not below 10000 nM.
On to `CCc1c(F)ccc2cc(O)cc(-c3ncc4c(NCCCc5cc[nH]n5)nc(OC[C@@]56CCCN5C[C@H](F)C6)nc4c3F)c12` [Example 135, 4-(4-((3-(1H-pyrazol-3-yl)propyl)amino)-8-fluoro-2-(((2R,7aS)-2-fluorohexahydro-1H-pyrrolizin-7a-yl)methoxy)pyrido[4,3-d]pyrimidin-7-yl)-5-ethyl-6-fluoronaphthalen-2-ol], for which the concentration for half-maximal inhibition (IC50) was found to be 2460 nM in [1]; 2060 nM in assay [2] (Homo sapiens, ASPC1, 3 h); 3270 nM in assay [3]; 53 nM in [4]; 37 nM in [5]; 647 nM in assay [6] (Homo sapiens, NCI-H460, 3 h). Moreover, the IC50 in assay [7] (Homo sapiens, NCI-H727, 3 h) was not below 10000 nM; in assay [8], not below 10000 nM; against KRas G12D, 31 nM; on KRas G12V, 3 nM; against KRas G12R, 3 nM.
Turning to `Oc1cc(-c2ncc3c(N4CCCC(c5ncn[nH]5)C4)nc(OCC45CCCN4CCC5)nc3c2F)c2c(F)c(F)ccc2c1` (stereo not shown) [Example 137, 4-(4-(3-(1H-1,2,4-triazol-5-yl)piperidin-1-yl)-8-fluoro-2-((hexahydro-1H-pyrrolizin-7a-yl)methoxy)pyrido[4,3-d]pyrimidin-7-yl)-5,6-difluoronaphthalen-2-ol], the IC50 is not below 10000 nM in [1]; not below 10000 nM in [2] (Homo sapiens, ASPC1, 3 h); not below 10000 nM in assay [3]; not below 10000 nM in assay [4]; 2040 nM in assay [5]; not below 10000 nM in assay [6] (Homo sapiens, NCI-H460, 3 h). Moreover, the IC50 was not below 10000 nM in [7] (Homo sapiens, NCI-H727, 3 h); not below 10000 nM in assay [8]; not above 2 nM against KRas G12D; not above 2 nM at KRas G12V; 3 nM against KRas G12R.
As to `Cc1n[nH]c(C2CCCN(c3nc(OCC45CCCN4CCC5)nc4c(F)c(-c5cc(O)cc6ccc(F)c(F)c56)ncc34)C2)n1` (stereo not shown) [Example 138, 5,6-difluoro-4-(8-fluoro-2-((hexahydro-1H-pyrrolizin-7a-yl)methoxy)-4-(3-(3-methyl-1H-1,2,4-triazol-5-yl)piperidin-1-yl)pyrido[4,3-d]pyrimidin-7-yl)naphthalen-2-ol], the half-maximal inhibitory concentration (IC50) in assay [1] is not below 10000 nM; in assay [2] (Homo sapiens, ASPC1, 3 h), not below 10000 nM; in assay [3] it was not below 10000 nM; in [4], not below 10000 nM; in assay [5], not below 10000 nM; in assay [6] (Homo sapiens, NCI-H460, 3 h) it was not below 10000 nM. Also, the IC50 in assay [7] (Homo sapiens, NCI-H727, 3 h) is not below 10000 nM; in [8] it was not below 10000 nM; against KRas G12D, 12 nM; against KRas G12V, 5 nM; against KRas G12R it was 5 nM.
For `C[C@@]1(O)CCCN(c2nc(OC[C@@]34CCCN3C[C@H](F)C4)nc3c(F)c(-c4c5ccccc5cc5[nH]ncc45)ncc23)C1` [Example 154, (3R)-1-(7-(1H-benzo[f]indazol-4-yl)-8-fluoro-2-(((2R,7aS)-2-fluorohexahydro-1H-pyrrolizin-7a-yl)methoxy)pyrido[4,3-d]pyrimidin-4-yl)-3-methylpiperidin-3-ol], the IC50 was 34 nM at KRas G13D; 53 nM at KRas Q61H; 8450 nM in [1]; 1460 nM in [3]; 840 nM in assay [5]; not below 10000 nM in assay [7] (Homo sapiens, NCI-H727, 3 h). Also, the concentration for half-maximal inhibition (IC50) was not below 10000 nM in [8]; 33 nM against KRas G12D; 28 nM on KRas G12V; 66 nM against KRas G12R; 42 nM on KRas G12A; 43 nM on KRas G12S. For the same compound, the values for the half-maximal inhibitory concentration (IC50) at KRas G12C and on KRas WT were 43 nM and 54 nM, respectively.

Source of the values: patent US12398154B2, “Azaquinazoline pan-KRas inhibitors” (Mirati Therapeutics, Inc., priority 2020, dated 2025).
